Target: Ba/F3-TEL-FGFR2 (Homo sapiens, UniProt P21802+P41212)
Assay: Cell viability (proliferation inhibition) of Ba/F3 cells, CellTiter Glo
Conditions: read-out: Ba/F3 cell FGFR2 (IC50 nM), 72 h

Ba/F3-TEL-FGFR2, sequence (P21802 481-770 limits assumed, one chain of several): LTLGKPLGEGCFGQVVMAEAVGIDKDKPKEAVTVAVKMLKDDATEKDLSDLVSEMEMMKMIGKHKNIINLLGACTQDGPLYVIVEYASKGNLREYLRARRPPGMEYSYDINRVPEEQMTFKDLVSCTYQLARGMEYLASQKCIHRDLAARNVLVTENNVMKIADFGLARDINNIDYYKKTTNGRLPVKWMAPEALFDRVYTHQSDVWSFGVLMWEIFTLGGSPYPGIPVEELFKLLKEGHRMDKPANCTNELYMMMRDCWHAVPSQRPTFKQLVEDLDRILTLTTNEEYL

SMILES	IC50 [nM]
C=C(C)C(=O)N1CC=C(c2c(-c3ccc(N=S4(=O)CCCCC4)cc3)c3c(N)ncnc3n2C)CC1 [Compound 3, 1-(4-(4-amino-7-methyl-5-(4-(1-oxotetrahydro-2H-1λ^6-thiopyran-1-imino)phenyl)-7H-pyrrolo[2,3-d]pyrimidin-6-yl)-3,6-dihydropyridine-1(2H)-yl)2-methylprop-2-enyl-1-one]	700
C=C(C)C(=O)Nc1ccc(-c2c(-c3ccc(N=S4(=O)CCCCC4)c(OC)c3)c3c(N)ncnc3n2C)c(F)c1 [Compound 5, N-(4-(4-amino-5-(3-methoxy-4-(1-oxotetrahydro-2H-1λ^6-thiopyran-1-imino)phenyl)-7-methyl-7H-pyrrolo [2,3-d]pyrimidin-6-yl)-3-fluorophenyl) methacrylamide]	29.3
C=C(C)C(=O)Nc1ccc(-c2c(-c3ccc(N=S4(=O)CCC(F)(F)CC4)cc3)c3c(N)ncnc3n2C)c(F)c1 [Compound 6, N-(4-(4-amino-5-(4-(4,4-difluoro-1-oxotetrahydro-2H-λ^6-thiopyran-1-imino)phenyl) -7-methyl-7H-pyrrolo [2,3-d]pyrimidin-6-yl) -3-fluorophenyl) methacrylamide]	9.3
C=C(C)C(=O)Nc1ccc(-c2c(-c3ccc(N=S4(=O)CC(OC)(OC)C4)c(F)c3)c3c(N)ncnc3n2C)cc1 [Compound 10]	107
C=C(C)C(=O)Nc1ccc(-c2c(-c3ccc(N=S4(=O)CC5(COC5)C4)c(F)c3)c3c(N)ncnc3n2C)cc1 [Compound 11]	172
C=C(C)C(=O)Nc1ccc(F)c(-c2c(-c3ccc(N=S4(=O)CCCCC4)c(F)c3)c3c(N)ncnc3n2C)c1 [Compound 12, N-(3-(4-amino-5-(3-fluoro-4-((1-oxotetrahydro-2H-1 λ^6-thiopyran-1-ylidene)amino)phenyl) -7-methyl-7H-pyrrolo [2,3-d]pyrimidin-6-yl) -4-fluorophenyl) methacrylamide]	276
C=CC(=O)Nc1ccc(-c2c(-c3ccc(N=S4(=O)CCCCC4)c(F)c3)c3c(N)ncnc3n2C)cc1 [Compound 13, N-(4-(4-amino-5-(3-fluoro-4-((1-oxotetrahydro-2H-1 λ^6-thiopyran-1-ylidene)amino)phenyl) -7-methyl-7H-pyrrolo [2,3-d]pyrimidin-6-yl)phenyl) acrylamide]	0.6
C=C(C)C(=O)Nc1ccc(-c2c(-c3ccc(N=S4(=O)CCCCC4)c(F)c3)c3c(N)ncnc3n2C)c(OC)c1 [Compound 14, N-(4-(4-amino-5-(3-fluoro-4-((1-oxotetrahydro-2H-1 λ^6-thiopyran-1-ylidene)amino)phenyl)-7-methyl-7H-pyrrolo[2,3-d]pyrimidin-6-yl)-3-methoxyphenyl) methacrylamide]	9.9
C/C=C/C(=O)Nc1ccc(-c2c(-c3ccc(N=S4(=O)CCCCC4)c(F)c3)c3c(N)ncnc3n2C)cc1 [Compound 15, (E)-N-(4-(4-amino-5-(3-fluoro-4-((1-oxotetrahydro-2H-1λ^6-thiopyran-1-ylidene)amino)phenyl)-7-methyl-7H-pyrrolo [2,3-d]pyrimidin-6-yl) -phenyl)-2-butenamide]	15.4
CN(C)C/C=C/C(=O)Nc1ccc(-c2c(-c3ccc(N=S4(=O)CCCCC4)c(F)c3)c3c(N)ncnc3n2C)cc1 [Compound 16, (E)-N-(4-(4-amino-5-(3-fluoro-4-((1-oxotetrahydro-2H-1 λ^6-thiopyran-1-ylidene)amino)phenyl) -7-methyl-7H-pyrrolo [2,3-d]pyrimidin-6-yl) - phenyl) -4-(dimethylamino) -2-butenamide]	50.1
C=C(C)C(=O)Nc1ccc(-c2c(-c3ccc(N=S4(=O)CCCCC4)nc3)c3c(N)ncnc3n2C)cc1 [Compound 17, N-[4-(4-amino-7-methyl-5-(6-((1-oxotetrahydro-2H-1 λ^6-thiopyran-1-ylidene)amino)pyridin-3-yl)pyrrolo [2,3-d]pyrimidin-6-yl)phenyl) methacrylamide]	4620
C=C(COC)C(=O)Nc1ccc(-c2c(-c3ccc(N=S4(=O)CCCC4)c(F)c3)c3c(N)ncnc3n2C)cc1 [Compound 18, N-(4-(4-amino-5-(3-fluoro-4-((1-oxotetrahydro-1 λ^6-thiophene-1-ylidene)amino)phenyl) -7-methyl-7H-pyrrolo [2,3-d]pyrimidin-6-yl)phenyl) -2-(methoxymethyl) acrylamide]	21.5
CC#CC1=Nc2ccc(-c3c(-c4ccc(N=S(C)(C)=O)c(F)c4)c4c(N)ncnc4n3C)cc2C(C)(C)O1 [Compound 19]	2980
CC#CC(=O)Nc1ccc(-c2c(-c3ccc(N=S(C)(C)=O)c(F)c3)c3c(N)ncnc3n2C)cc1C(C)(C)O [Compound 20]	86.7
C=C(C)C(=O)Nc1ccc(-c2c(-c3ccc(N=S4(=O)CCCC4)c(F)c3)c3c(N)ncnc3n2C)c(C#N)c1 [Compound 25, N-(4-(4-amino-5-(3-fluoro-4-((1-oxotetrahydro-1 λ^6-thiophene-1-ylidene)amino)phenyl) -7-methyl-7H-pyrrolo [2,3-d]pyrimidin-6-yl) -3-cyanophenyl) methacrylamide]	38.7
C=C(C)C(=O)Nc1ccc(-c2c(-c3cc(F)c(N=S4(=O)CCCC4)c(F)c3)c3c(N)ncnc3n2C)cc1 [Compound 27, N-(4-(4-amino-5-(3,5-difluoro-4-((1-oxotetrahydro-1 λ^6-thiophene-1-ylidene)amino)phenyl) -7-methyl-7H-pyrrolo [2,3-d]pyrimidin-6-yl)phenyl) methacrylamide]	26

SMILES	IC50 [nM]
C=C(C)C(=O)Nc1ccc(-c2c(-c3ccc(N=S(=O)(N(C)C)C(F)(F)F)cc3)c3c(N)ncnc3n2C)cc1 (stereo not shown) [Compound 28]	0.9
C=C(C)C(=O)Nc1ccc(-c2c(-c3ccc(N=S4(=O)CCN(C)CC4)c(F)c3)c3c(N)ncnc3n2C)cc1 [Compound 30, N-(4-(4-amino-5-(3-fluoro-4-((4-methyl-1-oxo-1 λ^6-thiomorpholin-1-ylidene)amino)phenyl) -7-methyl-7H-pyrrolo [2,3-d]pyrimidin-6-yl)phenyl) methacrylamide]	1440
C=C(C)C(=O)Nc1ccc(-c2c(-c3ccc(N=S4(=O)CCCCC4)c(C)c3)c3c(N)ncnc3n2C)cc1 [Compound 34, N-(4-(4-amino-7-methyl-5-(3-methyl-4-((1-oxotetrahydro-2H-1λ^6-thiopyran-1-ylidene)amino)phenyl) -7H-pyrrolo [2,3-d]pyrimidin-6-yl)phenyl) methacrylamide]	17.9
C=C(C)C(=O)Nc1ccc(-c2c(-c3ncc(N=S4(=O)CCCCC4)cc3F)c3c(N)ncnc3n2C)cc1 [Compound 36, N-(4-(4-amino-5-(3-fluoro-5-((1-oxotetrahydro-2H-1 λ^6-thiopyran-1-ylidene)amino)pyridin-2-yl) -7-methyl-7H-pyrrole [2,3-d]pyrimidin-6-yl)phenyl) methacrylamide]	53.5
C=C(C)C(=O)Nc1ccc(-c2c(-c3ccc(N=S4(=O)CCCCC4)c(F)c3)c3c(N)ncnc3n2C)cc1F [Compound 37, N-(4-(4-amino-5-(3-fluoro-4-((1-oxotetrahydro-2H-1 λ^6-thiopyran-1-ylidene)amino)phenyl) -7-methyl-7H-pyrrolo [2,3-d]pyrimidin-6-yl) -2-fluorophenyl) methacrylamide]	32
C=C(C)C(=O)Nc1cc(-c2c(-c3ccc(N=S4(=O)CCCCC4)c(F)c3)c3c(N)ncnc3n2C)ccc1F [Compound 38, N-(5-(4-amino-5-(3-fluoro-4-((1-oxotetrahydro-2H-1 λ^6-thiopyran-1-ylidene)amino)phenyl) -7-methyl-7H-pyrrolo [2,3-d]pyrimidin-6-yl) -2-fluorophenyl) methacrylamide]	247
C=C(C)C(=O)Nc1ccc(F)c(-c2c(-c3ccc(N=S(=O)(N(C)C)C(F)(F)F)cc3)c3c(N)ncnc3n2C)c1 (stereo not shown) [Compound 39]	10.2
C=C(C)C(=O)Nc1ccc(-c2c(-c3ccc(N=S4(=O)CCCCC4)c(Cl)c3)c3c(N)ncnc3n2C)cc1 [Compound 40, N-(4-(4-amino-5-(3-chloro-4-((1-oxotetrahydro-2H-1λ^6 - thiopyran-1-ylidene)amino)phenyl) -7-methyl-7H-pyrrolo [2,3-d]pyrimidin-6-yl)phenyl) methacrylamide]	7.7
C=C(C)C(=O)Nc1ccc(-c2c(-c3ccc(N=S4(=O)CCOCC4)c(F)c3)c3c(N)ncnc3n2C)cc1 [Compound 41]	124
C=C(C)C(=O)Nc1ccc(-c2c(-c3ccc(N=S(C)(C)=O)c(F)c3)c3c(N)ncnc3n2C)c(F)c1 [Compound 42]	32.9
C=C(C)C(=O)Nc1ccc(-c2c(-c3ccc(N=S4(=O)CCCCC4)cc3F)c3c(N)ncnc3n2C)cc1 [Compound 43, N-(4-(4-amino-5-(2-fluoro-4-((1-oxotetrahydro-2H-1λ^6-thiopyran-1-ylidene)amino)phenyl) -7-methyl-7H-pyrrolo [2,3-d]pyrimidin-6-yl)phenyl) methacrylamide]	14.2
C=C(C)C(=O)Nc1ccc(-c2c(-c3ccc(N=S(C)(C)=O)c(F)c3)c3c(N)ncnc3n2C)cc1 [Compound 44]	216
C=C(C)C(=O)Nc1ccc(-c2c(-c3ccc(N=S(C)(C)=O)cc3)c3c(N)ncnc3n2C)cc1 [Compound 45]	83.1
C=C(C)C(=O)N(C)c1ccc(-c2c(-c3ccc(N=S4(=O)CCCCC4)c(F)c3)c3c(N)ncnc3n2C)cc1 [Compound 46, N-(4-(4-amino-5-(3-fluoro-4-((1-oxotetrahydro 2H-1λ^6 - thiopyran-1-ylidene)amino)phenyl) -7-methyl-7H-pyrrolo [2,3-d]pyrimidin-6-yl)phenyl) - N-methylmethacrylamide]	162
C=C(C)C(=O)Nc1ccc(-c2c(-c3ccc(N=S(=O)(N4CCCC4)C(F)(F)F)c(F)c3)c3c(N)ncnc3n2C)cc1 (stereo not shown) [Compound 47, N-(4-(4-amino-5-(3-fluoro-4-((oxo (pyrrolidine-1-yl) (trifluoromethyl) - λ^6-sulfanylidene)amino)phenyl) -7-methyl-7H-pyrrolo [2,3-d]pyrimidin-6-yl)phenyl) methacrylamide]	2.7
